Results published in article PMC11904993, “Humanized Candida and NanoBiT Assays Expedite Discovery of Bdf1 Bromodomain Inhibitors With Antifungal Potential” (Advanced Science, 2025).
“And” between values parts separate entries of the source, which are not always exact repeats. Equal entries are not always repeated. Where two headings read alike, the source gives them in different places.

How the values were obtained:
[1] = tested on: C. glabrata strains expressing WT and mutant Bdf1; experiment: Growth inhibition in liquid media, C. glabrata lab strains
Procedure: Growth on Liquid Media with C. glabrata Lab Strains: Cells were grown at 30 °C in SC+M+C‐U medium (SC medium with 5 mM methionine, 0.25 mM cysteine, without uracil) to an OD600 of 0.5–0.8. […] Plates were incubated at 30 °C and OD600 was measured using a Multiskan FC Microplate Photometer (Thermo Fisher).

[2] = biological target: T1, human Brd4 BD2 (Homo sapiens, UniProt O60885); experiment: HTRF assay, inhibition of H4ac4 peptide binding; conditions: for %HTRF Signal hBrd4 BD2: Fig 2E
T1 construct: GST‐tagged BD2 (residues 349–460) from human Brd4 (UniProt ID O60885); purchased Reaction Biology Corp

[3] = tested on: Bmh1/Bmh2; experiment: NanoBiT assay, control pair; assay type: cell-based, S. cerevisiae; set-up: Normalized nanoBiT signal: unit of the concentration uncertain; conditions: for Normalized nanoBiT signal: Bmh1-LgBiT, Bmh2-SmBiT, Fig 4C
Procedure: (§1) Yeast strains were distributed in 96‐well microplates containing SC(MSG)‐U medium (SC‐U medium with 0.1% monosodium glutamate instead of ammonium sulfate as a nitrogen source) and grown at 30 °C. 40 µL of exponentially growing cells were transferred in white 96‐well half‐area microplates (ProxiPlate Plus, Greiner Bio‐One) previously filled with 40 µL per well of SC(MSG) containing 100 µM furimazine. The microplates were then incubated for 10 min in the dark before the luminescence signals were recorded using a microplate reader (Ensight, PerkinElmer). Luminescence measurements were performed for 1 s per well at a distance of 0.1 mm between the plate and the detector. The luminescence values were normalized with the optical density (OD600) of the corresponding cultures. For NanoBiT assays with BET inhibitors, yeast cultures were grown overnight at 30 °C in SC(MSG) medium in the presence of serial dilutions of 24c and I‐BET726. Overnight cultures were diluted 5 fold in SC(MSG) and incubated for 1 h before luminescence was recorded as previously indicated. Luminescence values for each condition were normalized using the average of the luminescence recorded for the Bdf1/Swc4 and Bmh1/Bmh2 controls.

[4] = biological target: T2, Bdf1‐SmBiT/H2A.Z‐LgBiT pair (Saccharomyces cerevisiae, UniProt P35817); experiment: NanoBiT assay; assay type: cell-based, S. cerevisiae; set-up: remaining activity: dose or concentration left out as unconfirmed
T2 construct: expressed in transfected cells; host or cells: S. cerevisiae (H2A.Z-LgBiT strain)
Procedure: as §1

[5] = biological target: CgBdf1 BD2 (Candida glabrata, UniProt Q6FWV7); experiment: biochemical; assay type: binding, C. glabrata
[6] = biological target: T3, CaBdf1 BD1 (Candida albicans, UniProt Q5A4W8); experiment: HTRF assay, inhibition of H4ac4 peptide binding; set-up: species or system C. albicans
T3 construct: BD1 (residues 193–327) and BD2 (residues 361–501) from CaBdf1 (Uniprot ID Q5A4W8); made in house; host or cells: E. coli BL21(DE3)
T3 sequence (Q5A4W8 193-327): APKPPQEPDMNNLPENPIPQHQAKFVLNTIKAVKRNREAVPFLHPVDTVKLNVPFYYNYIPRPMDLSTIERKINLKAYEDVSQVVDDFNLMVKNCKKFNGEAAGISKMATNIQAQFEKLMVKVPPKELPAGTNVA

T2 sequence (P35817 whole entry): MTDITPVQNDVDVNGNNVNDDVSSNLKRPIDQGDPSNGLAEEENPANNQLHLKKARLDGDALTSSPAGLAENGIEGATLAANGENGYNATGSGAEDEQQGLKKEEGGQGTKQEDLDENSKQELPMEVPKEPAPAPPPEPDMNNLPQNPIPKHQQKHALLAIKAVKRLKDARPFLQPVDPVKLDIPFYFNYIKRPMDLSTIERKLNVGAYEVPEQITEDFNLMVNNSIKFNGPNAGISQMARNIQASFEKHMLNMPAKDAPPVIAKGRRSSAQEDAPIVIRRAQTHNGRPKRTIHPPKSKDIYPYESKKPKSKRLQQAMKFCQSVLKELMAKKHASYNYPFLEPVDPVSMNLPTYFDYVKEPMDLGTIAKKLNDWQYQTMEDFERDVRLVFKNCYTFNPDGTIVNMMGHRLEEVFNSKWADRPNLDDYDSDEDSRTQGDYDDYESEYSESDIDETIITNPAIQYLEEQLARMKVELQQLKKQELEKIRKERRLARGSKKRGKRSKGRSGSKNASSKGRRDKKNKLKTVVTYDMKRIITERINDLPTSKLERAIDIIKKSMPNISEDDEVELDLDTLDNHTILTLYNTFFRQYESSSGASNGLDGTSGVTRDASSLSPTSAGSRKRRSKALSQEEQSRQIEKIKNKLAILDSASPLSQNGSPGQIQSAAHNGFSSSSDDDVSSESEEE
Sequence of CgBdf1 BD2 (Q6FWV7 entry or part of it): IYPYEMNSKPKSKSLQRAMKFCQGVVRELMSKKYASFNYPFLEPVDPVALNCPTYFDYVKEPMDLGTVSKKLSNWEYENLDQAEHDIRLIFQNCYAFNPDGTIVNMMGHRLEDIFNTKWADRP

With Cc1ccc(-c2nnc(C)c(NCc3ccc(C)o3)n2)cc1 [Compound 24c, 6‐methyl‐N‐((5‐methylfuran‐2‐yl)methyl)‐3‐(p‐tolyl)‐1,2,4‐triazin‐5‐amine] as the compound, how does the EC50 ([1]; Nakaseomyces glabratus, read-out: EC50 (μM) growth inhibition, strain bdf1-bd1Δ (active BD: BD2)) read?
Its EC50 is roughly 100 µM.

And the EC50 ([1]; Nakaseomyces glabratus, read-out: EC50 (μM) growth inhibition, strain bdf1-bd2Δ (active BD: BD1))?
Its EC50 is 22.7 ± 7.9 µM.

And the EC50 ([1]; Nakaseomyces glabratus, read-out: pEC50 (WT BDF1), Fig 2D (converted), WT C. glabrata, single experiments Exp1-3)?
Its EC50 is 86.5 µM.

And the EC50 ([1]; Nakaseomyces glabratus, read-out: pEC50 growth inhibition, Fig 2C (converted), strain BD1 Y-F, single experiments Exp1-3)?
The EC50 was 107 µM.

What about the EC50 ([1]; Nakaseomyces glabratus, read-out: pEC50 growth inhibition, Fig 2C (converted), strain BD2 Y-F, single experiments Exp1-3) of the same compound?
The EC50 was 36.4 µM.

And the EC50 ([1]; read-out: EC50 (μM) growth inhibition, strain WT BDF1 (both BDs active))?
The EC50 was 93 µM.

And the IC50 [2]?
Its IC50 is greater than 20 µM.

What about the “%HTRF Signal hBrd4 BD2” value ([2]; 0.002 microM) of the same compound?
Its value is 101.87% and 97.60% and 95.93%.

And the “%HTRF Signal hBrd4 BD2” value ([2]; 0.005 microM)?
Its value is 107.00% and 95.29% and 98.83%.

And the “%HTRF Signal hBrd4 BD2” value ([2]; 0.013 microM)?
The value was 110.74% and 98.44% and 97.06%.

And the “%HTRF Signal hBrd4 BD2” value ([2]; 0.033 microM)?
The value was 106.00% and 100.34% and 100.19%.

And the “%HTRF Signal hBrd4 BD2” value ([2]; 0.082 microM)?
The value was 114.59% and 102.11% and 105.40%.

What about the “%HTRF Signal hBrd4 BD2” value ([2]; 0.205 microM) of the same compound?
Its value is 102.46% and 102.49% and 103.89%.

What about the “%HTRF Signal hBrd4 BD2” value ([2]; 0.512 microM) of the same compound?
The value was 110.69% and 102.99% and 100.42%.

And the “%HTRF Signal hBrd4 BD2” value ([2]; 1.280 microM)?
Its value is 110.63% and 103.66% and 98.46%.

What about the “%HTRF Signal hBrd4 BD2” value ([2]; 3.200 microM) of the same compound?
The value was 107.03% and 99.12% and 95.88%.

And the “%HTRF Signal hBrd4 BD2” value ([2]; 8.000 microM)?
The value was 99.23% and 96.86% and 85.81%.

And the “%HTRF Signal hBrd4 BD2” value ([2]; 20.000 microM)?
Its value is 80.43% and 88.19% and 83.66%.

What about the “Normalized nanoBiT signal” value ([3]; 0.1953 (unit uncertain)) of the same compound?
Its value is 107% and 92% and 96% and 99%.

And the “Normalized nanoBiT signal” value ([3]; 0.3906 (unit uncertain))?
The value was 88% and 99% and 103%.

What about the “Normalized nanoBiT signal” value ([3]; 0.7813 (unit uncertain)) of the same compound?
The value was 86% and 104% and 98% and 103%.

And the “Normalized nanoBiT signal” value ([3]; 1.5625 (unit uncertain))?
Its value is 100% and 97% and 101%.

And the “Normalized nanoBiT signal” value ([3]; 3.1250 (unit uncertain))?
The value was 93% and 97% (2×) and 103%.

What about the “Normalized nanoBiT signal” value ([3]; 50.0000 (unit uncertain)) of the same compound?
The value was 79% and 98% and 101% and 93%.

What about the “Normalized nanoBiT signal” value ([3]; 100.0000 (unit uncertain)) of the same compound?
The value was 95% and 97% and 100% and 88%.

And the “inhibition of NanoBiT signal, Bmh1/Bmh2” value ([3]; unrelated control pair)?
Its value is “not observed”.

What about the remaining activity at 195.3 µM ([4]; Bdf1-SmBiT, Htz1-LgBiT, 0.1953 mM, Fig 4C, read-out: Normalized nanoBiT signal) of the same compound?
Its remaining activity at 195.3 µM is 99%.

What about the remaining activity at 390.6 µM ([4]; Bdf1-SmBiT, Htz1-LgBiT, 0.3906 mM, Fig 4C, read-out: Normalized nanoBiT signal) of the same compound?
The remaining activity at 390.6 µM was 98%.

And the remaining activity at 781.3 µM ([4]; Bdf1-SmBiT, Htz1-LgBiT, 0.7813 mM, Fig 4C, read-out: Normalized nanoBiT signal)?
The remaining activity at 781.3 µM was 99%.

What about the remaining activity at 3125 µM ([4]; Bdf1-SmBiT, Htz1-LgBiT, 3.1250 mM, Fig 4C, read-out: Normalized nanoBiT signal) of the same compound?
Its remaining activity at 3125 µM is 98%.

What about the remaining activity ([4]; Bdf1-SmBiT, Htz1-LgBiT, […], Fig 4C, read-out: Normalized nanoBiT signal) of the same compound?
The remaining activity was 85%.

What about the IC50 ([4]; mean and s.d., 4 independent experiments, read-out: IC50 (μM) (ScBdf1 / H2A.Z) NanoBiT signal) of the same compound?
Its IC50 is 65 µM.

And the activity at 0.002 µM ([5]; 24 h, Fig 2E, 0.002 microM, read-out: %HTRF Signal CgBdf1 BD2)?
Its activity at 0.002 µM is 108%.

What about the activity at 0.005 µM ([5]; 24 h, Fig 2E, 0.005 microM, read-out: %HTRF Signal CgBdf1 BD2) of the same compound?
The activity at 0.005 µM was 102%.

What about the activity at 0.013 µM ([5]; 24 h, Fig 2E, 0.013 microM, read-out: %HTRF Signal CgBdf1 BD2) of the same compound?
The activity at 0.013 µM was 118%.

What about the activity at 0.033 µM ([5]; 24 h, Fig 2E, 0.033 microM, read-out: %HTRF Signal CgBdf1 BD2) of the same compound?
The activity at 0.033 µM was 109%.

And the activity at 0.082 µM ([5]; 24 h, Fig 2E, 0.082 microM, read-out: %HTRF Signal CgBdf1 BD2)?
The activity at 0.082 µM was 99.8%.

What about the activity at 0.205 µM ([5]; 24 h, Fig 2E, 0.205 microM, read-out: %HTRF Signal CgBdf1 BD2) of the same compound?
The activity at 0.205 µM was 104%.

What about the activity at 0.512 µM ([5]; 24 h, Fig 2E, 0.512 microM, read-out: %HTRF Signal CgBdf1 BD2) of the same compound?
Its activity at 0.512 µM is 101%.

What about the activity at 1.28 µM ([5]; 24 h, Fig 2E, 1.280 microM, read-out: %HTRF Signal CgBdf1 BD2) of the same compound?
The activity at 1.28 µM was 93.8%.

What about the activity at 3.2 µM ([5]; 24 h, Fig 2E, 3.200 microM, read-out: %HTRF Signal CgBdf1 BD2) of the same compound?
Its activity at 3.2 µM is 83.5%.

What about the activity at 8 µM ([5]; 24 h, Fig 2E, 8.000 microM, read-out: %HTRF Signal CgBdf1 BD2) of the same compound?
Its activity at 8 µM is 60.2%.

What about the IC50 ([5]; Fig 2C original data, analogs of 24, single experiments Exp1-3, read-out: pIC50 CgBD2 (converted)) of the same compound?
The IC50 was 13.9 µM and 12 µM and 9.53 µM.

And the IC50 ([5]; Fig 2E, mean and s.d., three independent experiments, read-out: IC50 (μM) CgBD2)?
The IC50 was 11.8 µM and 12 µM.

What about the remaining activity at 0.013 µM ([6]; CaBD1, 24c 0.013 microM, Exp1-2, read-out: Percent HTRF Signal) of the same compound?
The remaining activity at 0.013 µM was 94%.

What about the remaining activity at 0.033 µM ([6]; CaBD1, 24c 0.033 microM, Exp1-2, read-out: Percent HTRF Signal) of the same compound?
Its remaining activity at 0.033 µM is 100%.

And the remaining activity at 0.082 µM ([6]; CaBD1, 24c 0.082 microM, Exp1-2, read-out: Percent HTRF Signal)?
The remaining activity at 0.082 µM was 99.6%.

What about the remaining activity at 0.2 µM ([6]; CaBD1, 24c 0.20 microM, Exp1-2, read-out: Percent HTRF Signal) of the same compound?
The remaining activity at 0.2 µM was 102%.

What about the remaining activity at […] ([6]; CaBD1, 24c 0.51 microM, Exp1-2, read-out: Percent HTRF Signal) of the same compound?
The remaining activity at […] was 96.9%.

And the remaining activity at 1.28 µM ([6]; CaBD1, 24c 1.28 microM, Exp1-2, read-out: Percent HTRF Signal)?
Its remaining activity at 1.28 µM is 99%.

And the remaining activity at 3.2 µM ([6]; CaBD1, 24c 3.20 microM, Exp1-2, read-out: Percent HTRF Signal)?
Its remaining activity at 3.2 µM is 90.4%.

What about the remaining activity at 8 µM ([6]; CaBD1, 24c 8.00 microM, Exp1-2, read-out: Percent HTRF Signal) of the same compound?
Its remaining activity at 8 µM is 85.5%.

What about the remaining activity at 20 µM ([6]; CaBD1, 24c 20.00 microM, Exp1-2, read-out: Percent HTRF Signal) of the same compound?
Its remaining activity at 20 µM is 73.3%.

And the “inhibition of Bdf1 BD1 from C. albicans” value ([6]; HTRF, Fig S9C)?
Its value is “weakly inhibited”.
